Laboratory results published in the supplement of paper PMC10307832.

How the values were obtained:
Assay in all cases: relative viability (nuclei count vs DMSO), 5 days (fraction); higher = more cells survive
[1] = compound: C1CC2=C(C1)C=C(C=C2)OC3=NC(=C4C(=N3)N(C=N4)CC5=CC=C(C=C5)C6=CC=CC=C6)N[C@@H](CC7=CC=CC=C7)CO [QS11] + Cc1cc(Nc2cc(N3CCN(C)CC3)nc(Sc3ccc(NC(=O)C4CC4)cc3)n2)n[nH]1 [Tozasertib] (partner 0.1 µM)
Procedure, shortened: (§1)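 A single step with final 0.05% Triton X-100, 1% formaldehyde and 1 ug/ml Hoechst fixed the cells and stained nuclei 5 days after treatment. Lung cancer cell lines in 1536-well plates had been treated by pin tool the day after seeding with one drug alone or a fixed anchor-drug dose plus five library-drug doses (not always all listed) in √10 steps, and nuclei were counted on 4× images. Relative viability is the ratio of nuclei in treated wells to nuclei in vehicle wells, taken as the median of duplicate plates.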

[2] = compound: C[As](C)SC[C@H](NC(=O)CC[C@H](N)C(=O)O)C(=O)NCC(=O)O [Darinaparsin] + CS(=O)(=O)N1CCN(Cc2cc3nc(-c4cccc5[nH]ncc45)nc(N4CCOCC4)c3s2)CC1 [Pictilisib] (partner 1 µM)
Procedure, shortened: as §1

[3] = compound: C[As](C)SC[C@H](NC(=O)CC[C@H](N)C(=O)O)C(=O)NCC(=O)O [Darinaparsin] + O=C(c1cc(Cc2n[nH]c(=O)c3ccccc23)ccc1F)N1CCN(C(=O)C2CC2)CC1 [Olaparib] (partner 8 µM)
Procedure, shortened: as §1

[4] = compound: C[As](C)SC[C@H](NC(=O)CC[C@H](N)C(=O)O)C(=O)NCC(=O)O [Darinaparsin] + CC(C)C[C@H](NC(=O)[C@H](Cc1ccccc1)NC(=O)c1cnccn1)B(O)O [Bortezomib] (partner 0.002 µM)
Procedure, shortened: as §1

Cell Line | relative viability ([1]; first compound 0.08 µM) | relative viability ([1]; first compound 0.253 µM) | relative viability ([1]; first compound 0.8 µM) | relative viability ([1]; first compound 2.53 µM) | relative viability ([1]; first compound 8 µM) | relative viability ([2]; first compound 0.08 µM) | relative viability ([2]; first compound 0.8 µM) | relative viability ([2]; first compound 2.53 µM) | relative viability ([2]; first compound 8 µM) | relative viability ([3]; first compound 0.08 µM) | relative viability ([3]; first compound 0.8 µM) | relative viability ([3]; first compound 2.53 µM) | relative viability ([3]; first compound 8 µM) | relative viability ([4]; first compound 0.08 µM) | relative viability ([4]; first compound 0.8 µM) | relative viability ([4]; first compound 2.53 µM) | relative viability ([4]; first compound 8 µM)
NCI-H596 | 0.875 | 0.879 | 0.923 | 0.93 | 1.13 | 0.396 | 0.397 | 0.416 | 0.378 | 0.634 | 0.675 | 0.667 | 0.774 | 1.35 | 1.09 | 1 | 1
NCI-H2126 | 0.803 | 0.849 | 0.817 | 0.886 | 0.795 | 0.506 | 0.499 | 0.474 | 0.533 | 0.986 | 0.886 | 0.84 | 1.12 | 1.16 | 1.2 | 0.892 | 1.19
EMC-BAC-2 | 0.297 | 0.292 | 0.279 | 0.274 | 0.238 | 0.607 | 0.501 | 0.582 | 0.568 | 0.475 | 0.447 | 0.614 | 0.461 | 1.2 | 0.973 | 0.997 | 1.2
H3255 | 0.639 | 0.853 | – | 0.651 | 0.589 | 0.474 | 0.429 | 0.421 | 0.514 | 0.644 | 0.518 | 0.606 | 0.632 | 0.794 | 0.835 | 0.79 | 0.945
NCI-H838 | 0.293 | 0.276 | 0.232 | 0.224 | 0.209 | 0.481 | 0.407 | 0.39 | 0.472 | 1.07 | 0.778 | 0.734 | 0.941 | 0.976 | 0.766 | 0.679 | 0.811
NCI-H2009 | 0.756 | 0.789 | 0.595 | 0.58 | 0.434 | 0.94 | 0.759 | 0.815 | 0.711 | 0.715 | 0.769 | 0.628 | 0.72 | 1.1 | 1.06 | 0.963 | 0.845
HCC-15 | 0.363 | 0.523 | 0.385 | 0.257 | 0.312 | 0.879 | 0.71 | 0.72 | 0.92 | 0.762 | 0.712 | 0.738 | 0.722 | 1.25 | 1.06 | 0.863 | 1.28
CAL-12T | 0.247 | 0.268 | 0.299 | 0.204 | 0.227 | 0.392 | 0.335 | 0.473 | 0.478 | 0.875 | 0.617 | 0.822 | 0.698 | 1.01 | 0.924 | 0.94 | 0.997
COR-L 105 | 0.364 | 0.296 | 0.335 | 0.391 | 0.336 | 0.446 | 0.411 | – | 0.429 | 0.747 | 0.695 | 0.758 | 0.69 | 0.944 | 0.78 | – | 0.636
